Laboratory results published in patent US20260297542A1, “HERBICIDE RESISTANT PLANTS” (SYNGENTA CROP PROTECTION AG, priority 2023, published 2026).
Where a chain is given by its changes, count along the chain named.

How the values were obtained:
Assay in all cases: E. coli hemG growth inhibition by herbicide, AtPPO1 variant
Type in all cases: cell-based
Details in all cases: read-out: percentage growth inhibition
[1] = target: T1, AtPPO1 V511L (Arabidopsis thaliana, UniProt P55826, V511L)
T1 construct: expressed in transfected cells; host or cells: E. coli BL21(DE3) hemG, pET24a plasmid
T1 sequence (P55826 35-537 V511L): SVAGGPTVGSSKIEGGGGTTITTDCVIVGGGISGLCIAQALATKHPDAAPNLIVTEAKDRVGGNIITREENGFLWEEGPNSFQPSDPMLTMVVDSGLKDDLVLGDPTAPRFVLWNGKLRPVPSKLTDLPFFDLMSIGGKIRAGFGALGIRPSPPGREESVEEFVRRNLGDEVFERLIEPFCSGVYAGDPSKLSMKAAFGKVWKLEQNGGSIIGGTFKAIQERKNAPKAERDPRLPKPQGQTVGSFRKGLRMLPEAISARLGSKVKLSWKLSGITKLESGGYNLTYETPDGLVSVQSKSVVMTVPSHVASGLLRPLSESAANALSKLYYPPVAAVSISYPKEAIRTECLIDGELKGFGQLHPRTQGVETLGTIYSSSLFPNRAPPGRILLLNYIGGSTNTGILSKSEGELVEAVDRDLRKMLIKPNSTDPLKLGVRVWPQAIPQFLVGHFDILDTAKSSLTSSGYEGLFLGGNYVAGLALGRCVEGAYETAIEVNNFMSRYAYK
Procedure, shortened: (§1)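 Variant plasmids were transformed into hemG-null BL21(DE3) and precultured 24 h with hematin. Washed cells were diluted 1:100 into Terrific broth containing 0.1 mM IPTG and herbicide (6.25 ppm 0 or E; 0.78 ppm B) or DMSO. After 24 h at 37° C, OD600 gave percent inhibition.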

[2] = target: T2, AtPPO1 A220C (Arabidopsis thaliana, UniProt P55826, A220C)
T2 construct: expressed in transfected cells; host or cells: E. coli BL21(DE3) hemG (hemG replaced by CmR), pET24a plasmid
T2 sequence (P55826 35-537 A220C): T1 sequence (P55826 35-537 V511L) with A186C, L477V
Procedure, shortened: as §1

[3] = target: T3, AtPPO1 R284G (Arabidopsis thaliana, UniProt P55826, R284G)
T3 construct: expressed in transfected cells; host or cells: E. coli BL21(DE3) hemG (pET24a, T7 promoter)
T3 sequence (P55826 35-537 R284G): T1 sequence (P55826 35-537 V511L) with R250G, L477V
Procedure, shortened: as §1

[4] = target: T4, AtPPO1 Y361F (Arabidopsis thaliana, UniProt P55826, Y361F)
T4 construct: expressed in transfected cells; host or cells: E. coli BL21(DE3) hemG (pET24a, T7 promoter)
T4 sequence (P55826 35-537 Y361F): T1 sequence (P55826 35-537 V511L) with Y327F, L477V
Procedure, shortened: as §1

| SMILES | inhibition at 6.25 ppm [1] | inhibition at 6.25 ppm [2] | inhibition at 6.25 ppm [3] | inhibition at 6.25 ppm [4] | inhibition at 0.78 ppm [1] | inhibition at 0.78 ppm [2] | inhibition at 0.78 ppm [3] | inhibition at 0.78 ppm [4] |
| --- | --- | --- | --- | --- | --- | --- | --- | --- |
| CC(C)N(C)S(=O)(=O)NC(=O)c1cc(-n2c(=O)cc(C(F)(F)F)n(C)c2=O)c(F)cc1Cl [Herbicide E, saflufenacil] | 46% | 66% | 60% | 50% | – | – | – | – |
| C#CCN1C(=O)C(F)(F)Oc2cc(F)c(-n3c(=O)n(C)c(=S)n(C)c3=O)cc21 [Herbicide B, trifludimoxazin] | – | – | – | – | 18% | 15% | 35% | 31% |
| CCOC(=O)[C@]1(C)CC(c2cc(-n3c(=O)n(C)c(=S)n(C)c3=O)c(F)cc2Cl)=NO1 [Herbicide D, ethyl (5S)-3-[2-chloro-5-(3,5-dimethyl-2,6-dioxo-4-thioxo-1,3,5-triazinan-1-yl)-4-fluoro-phenyl]-5-methyl-4H-isoxazole-5-carboxylate] | 18% | 33% | 37% | 37% | – | – | – | – |
